Test results published in ChEMBL document CHEMBL2034904, “A new series of N5 derivatives of the 1,1,5-trimethyl furo[3,4-c]pyridine-3,4-dione (cerpegin) selectively inhibits the post-acid activity of mammalian 20S proteasomes” (Bioorg Med Chem Lett, 2012).
pIC50: −log10 of the molar value. Active and inactive are the calls of the source. The rule behind the calls is not given here.

Legend:
[1] = target: Cathepsin B (Homo sapiens) (UniProt P07858); assay: Inhibition of cathepsin B from human hepatocytes using […] as substrate; details: Hepatocyte
Homo sapiens [2] = species: Homo sapiens; assay: Inhibition of calpain-1 from human erythrocytes using […] as substrate
Oryctolagus cuniculus [3] = species: Oryctolagus cuniculus; assay: Inhibition of chymotrypsin-like activity of 20S proteasome catalytic core from rabbit erythrocytes using Suc-LLVY-AMC as substrate at 100 uM preincubated for 15 mins prior to substrate addition measured after 45 mins
Oryctolagus cuniculus [4] = species: Oryctolagus cuniculus; assay: Inhibition of trypsin-like activity of 20S proteasome catalytic core from rabbit erythrocytes using Boc-LRR-AMC as substrate at 100 uM preincubated for 15 mins prior to substrate addition measured after 45 mins
Oryctolagus cuniculus [5] = species: Oryctolagus cuniculus; assay: Inhibition of caspase-like activity of 20S proteasome catalytic core from rabbit erythrocytes using Z-LLE-NA as substrate at 100 uM preincubated for 15 mins prior to substrate addition measured after 45 mins
[6] = Inhibition of caspase-like activity of 20S proteasome catalytic core from rabbit erythrocytes using Z-LLE-NA as substrate preincubated for 15 mins prior to substrate addition measured after 45 mins; set-up: species or system Oryctolagus cuniculus
[7] = Inhibition of caspase-like activity of 20S proteasome catalytic core from human erythrocytes using Z-LLE-NA as substrate preincubated for 15 mins prior to substrate addition measured after 45 mins
Homo sapiens [8] = species: Homo sapiens; assay: (§1) Inhibition of chymotrypsin-like activity of 20S proteasome catalytic core from human erythrocytes using Suc-LLVY-AMC as substrate preincubated for 15 mins prior to substrate addition measured after 45 mins
Homo sapiens [9] = species: Homo sapiens; assay: (§2) Inhibition of trypsin-like activity of 20S proteasome catalytic core from human erythrocytes using Boc-LRR-AMC as substrate preincubated for 15 mins prior to substrate addition measured after 45 mins
[10] = Inhibition of trypsin-like activity of 20S proteasome catalytic core from rabbit erythrocytes using Boc-LRR-AMC as substrate preincubated for 15 mins prior to substrate addition measured after 45 mins; set-up: species or system Oryctolagus cuniculus
Homo sapiens [11] = species: Homo sapiens; assay: Inhibition of trypsin-like activity of 20S proteasome catalytic core from human erythrocytes using Boc-LRR-AMC as substrate at 100 uM preincubated for 15 mins prior to substrate addition measured after 45 mins
[12] = as §1
Oryctolagus cuniculus [13] = species: Oryctolagus cuniculus; assay: Irreversible inhibition of rabbit 20S proteasome chymotrypsin-like activity using […] as substrate at 10 to 50 uM from 5 to 60 mins
[14] = Inhibition of chymotrypsin-like activity of 20S proteasome catalytic core from rabbit erythrocytes using Suc-LLVY-AMC as substrate preincubated for 15 mins prior to substrate addition measured after 45 mins; set-up: species or system Oryctolagus cuniculus
[15] = as §2
Oryctolagus cuniculus [16] = species: Oryctolagus cuniculus; assay: Inhibition of rabbit 20S proteasome chymotrypsin-like activity using […] as substrate at 10 to 50 uM; details: TDE = time-dependent effect

Structure (SMILES) | inhibition [1] | inhibition (Homo sapiens [2]) | inhibition (Oryctolagus cuniculus [3]) | inhibition (Oryctolagus cuniculus [4]) | pIC50 [6] | also measured
CC1(C)OC(=O)c2c1ccn(CCc1ccc(O)cc1)c2=O | inactive | inactive | 38.2% | inactive | – | inhibition (Oryctolagus cuniculus [5]): 21.7%
CC1(C)OC(=O)c2c1ccn(Cc1ccc(Cl)cc1)c2=O | inactive | inactive | 21% | 20% | 5.15 | –
CC1(C)OC(=O)c2c1ccn(CC(O)CN1CCOCC1)c2=O (stereo unspecified) | inactive | inactive | inactive | 42.5% | – | inhibition (Oryctolagus cuniculus [5]): inactive
CC1(C)OC(=O)c2c1ccn(CCc1ccc(F)cc1)c2=O | inactive | inactive | inactive | inactive | 4.40 | –
C=CCOCC(O)Cn1ccc2c(c1=O)C(=O)OC2(C)C (stereo unspecified) | inactive | inactive | inactive | inactive | 5.23 | –
CC1(C)OC(=O)c2c1ccn(CC(O)CN1CCN(Cc3ccccc3)CC1)c2=O (stereo unspecified) | inactive | inactive | inactive | inactive | 4.16 | –
CC1(C)OC(=O)c2c1ccn(CCc1ccccc1Cl)c2=O | inactive | inactive | inactive | 40% | 5.31 | –
COc1ccc(CCn2ccc3c(c2=O)C(=O)OC3(C)C)cc1 | inactive | inactive | inactive | inactive | – | inhibition (Oryctolagus cuniculus [5]): inactive
Cn1ccc2c(c1=O)C(=O)OC2(C)C [CERPEGIN] | inactive | inactive | inactive | inactive | 4.98 | –
CC1(C)OC(=O)c2c1ccn(CC(O)CN1CCCCC1)c2=O (stereo unspecified) | inactive | inactive | inactive | inactive | 5.21 | –
CC1(C)OC(=O)c2c1ccn(CCCN1CCCC1)c2=O | inactive | inactive | inactive | inactive | 4.94 | –
CC1(C)OC(=O)c2c1ccn(CC(O)c1ccccc1)c2=O (stereo unspecified) | inactive | inactive | inactive | 51.5% | 5.28 | –
CC1(C)OC(=O)c2c1ccn(CCc1c[nH]c3ccccc13)c2=O | inactive | inactive | inactive | inactive | – | inhibition (Oryctolagus cuniculus [5]): 23.7%
CC1(C)OC(=O)c2c1ccn(CCCN1CCOCC1)c2=O | inactive | inactive | inactive | inactive | 4.14 | –
CC1(C)OC(=O)c2c1ccn(Cc1ccc(Cl)cc1Cl)c2=O | inactive | inactive | inactive | inactive | 4.53 | –
CC1(C)OC(=O)c2c1ccn(CCc1ccc(Cl)cc1)c2=O | inactive | inactive | inactive | 50% | 4.70 | –
CC1(C)OC(=O)c2c1ccn(Cc1cccc(C(F)(F)F)c1)c2=O | inactive | inactive | inactive | inactive | 5.08 | –
CC1(C)OC(=O)c2c1ccn(Cc1ccncc1)c2=O | inactive | inactive | inactive | inactive | 5.15 | pIC50 [7]: 5.10; inhibition (Homo sapiens [8]): inactive; inhibition (Homo sapiens [9]): inactive
CN(C)CCn1ccc2c(c1=O)C(=O)OC2(C)C | inactive | inactive | inactive | inactive | – | inhibition (Oryctolagus cuniculus [5]): 50%
CC1(C)OC(=O)c2c1ccn(CCCn1ccnc1)c2=O | inactive | inactive | inactive | inactive | 4.11 | –
CC1(C)OC(=O)c2c1ccn(CC(O)CO)c2=O (stereo unspecified) | inactive | inactive | inactive | inactive | 5.31 | –
CCN(CC)CC(O)Cn1ccc2c(c1=O)C(=O)OC2(C)C (stereo unspecified) | inactive | inactive | inactive | – | 5.21 | pIC50 [10]: 4.05
CCOC(=O)Cn1ccc2c(c1=O)C(=O)OC2(C)C | inactive | inactive | inactive | inactive | 4.88 | –
CC1(C)OC(=O)c2c1ccn(CC(O)COc1ccccc1)c2=O (stereo unspecified) | inactive | inactive | inactive | 33.3% | 4.40 | –
CC1(C)OC(=O)c2c1ccn(CCc1ccc(S(N)(=O)=O)cc1)c2=O | inactive | inactive | inactive | inactive | 5.26 | –
CC1(C)OC(=O)c2c1ccn(CCO)c2=O | inactive | inactive | inactive | inactive | 4.92 | –
CC1(C)OC(=O)c2c1ccn(CCNc1ccc([N+](=O)[O-])cn1)c2=O | inactive | inactive | inactive | inactive | – | inhibition (Oryctolagus cuniculus [5]): 23.4%
CC1(C)OC(=O)c2c1ccn(CCc1ccccc1)c2=O | inactive | inactive | inactive | 22.6% | 4.31 | pIC50 [7]: 4.34; inhibition (Homo sapiens [8]): inactive; inhibition (Homo sapiens [11]): 25.3%
CC1(C)OC(=O)c2c1ccn(NC(N)=S)c2=O | inactive | inactive | – | – | 4.97 | pIC50 [7]: 5.01; pIC50 [12]: 5.08; inhibition (Oryctolagus cuniculus [13]): Active; pIC50 [14]: 5.10; pIC50 [15]: 4.99; pIC50 [10]: 5.00; inhibition (Oryctolagus cuniculus [16]): tde
